# Measurements published in US9618524B2, “Method, composition, isolation and identification of a plaque particle and related biomarker” (Plaxgen Inc., priority 2012, dated 2017).
# Legend:
# Assay in all cases: Mass spectroscopy proteomics, semi-quantitative binding affinity of serum proteins (plaqueproteome, Table 2)
# Conditions in all cases: higher number = stronger affinity
# [1] = molecular target: T1, Abeta-42 plaque particles (Homo sapiens, UniProt P05067)
# T1 construct: Abeta 1-42
# Method in brief: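 AD patient serum or plasma (50% in PBS) was incubated with Abeta-42 aggregates (30 μg) for 1 h at 37 °C, then stained with Thioflavin S for 30 min. Labeled particles were FACS-sorted, trypsin/Lys-C digested overnight and analyzed by MS/MS. Sequest searched human UniProt; Scaffold/Protein Prophet validated the identifications.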
# [2] = system: High Density cholesterol (Chl Large) plaque particles; set-up: species or system human
# Method in brief: (§1)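 Read-out is MS/MS protein identification (Sequest, strict trypsin, 20 ppm parent tolerance; Scaffold probabilities) of serum proteins bound to flow-sorted cholesterol plaque particles. These particles formed when 50% atherosclerotic serum was incubated with 30 μg cholesterol aggregates for 1 hr at 37° C.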
# [3] = system: Low density cholesterol (Chl small) plaque particles; set-up: species or system human
# Method in brief: as §1
# [4] = molecular target: T2, alpha-synuclein plaque particles (Homo sapiens, UniProt P37840)
# T2 construct: 140 amino acids polypeptide
# Method in brief: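 AD-subject plasma or serum (800 μL of 50%) mixed with 30 μg preformed alpha-synuclein aggregates for 1 h at 37 °C; Thioflavin S-positive particles isolated by flow sorting. After reduction, acrylamide alkylation and overnight tryptic digestion, serum proteins identified by MS/MS with Sequest and Scaffold.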
# Tau plaque particles = system: Tau plaque particles; set-up: species or system human
# Method in brief: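 Synthetic Tau-74 and Tau-275 peptides (1 mg/mL PBS, 37° C, 2 h) aggregated; 30 μg aggregates incubated with 50% serum/plasma 1 h at 37° C, stained with Thioflavin S, and plaque particles sorted by flow cytometry. Bound proteins trypsin-digested and identified by MS/MS against human UniProt.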
Substance,Semi-quantitative analysis of proteins binding to different plaque particles: Abeta-42 [1],Semi-quantitative analysis of proteins binding to different plaque particles: Chl Large [2],Semi-quantitative analysis of proteins binding to different plaque particles: Chl small [3],Semi-quantitative analysis of proteins binding to different plaque particles: Synuclein [4],Semi-quantitative analysis of proteins binding to different plaque particles: Tau (Tau plaque particles)
Isoform MBP-1 of Alpha-enolase,7,0,0,0,0
Isoform Short of Heterogeneous nuclear ribonucleoprotein,4,0,0,0,0
Lumican,0,4,3,0,0
Lysozyme C,4,0,0,0,0
Myosin-1,22,0,0,0,0
Myosin-6,17,0,0,0,0
Myosin-13,17,0,0,0,0
Nucleoside diphosphate kinase A,5,0,0,4,0
POTE ankyrin domain family member E,18,0,0,18,0
Phosphatidylcholine-sterol acyltransferase,0,1,0,1,0
Plasma kallikrein,0,1,3,0,3
Plasma protease C1 inhibitor,4,7,7,9,3
Plasminogen,7,11,9,7,13
Platelet factor 4,2,1,0,1,1
Serotransferrin,46,66,73,78,48
Serum amyloid P-component,5,1,1,0,2
Transthyretin,14,25,21,23,13
Tropomyosin alpha-3 chain,5,0,0,0,0
Tubulin beta-4B chain,0,0,0,0,5
Vitamin K-dependent protein S,0,0,1,0,0
Vitronectin,4,4,2,4,4
